Measurements: US20230382910A1, “HETEROARYL COMPOUNDS FOR THE TREATMENT OF PAIN” (VERTEX PHARMACEUTICALS INCORPORATED, priority 2022, published 2023)

Molecular target: human NaV 1.8 (Homo sapiens, UniProt Q9Y5Y9)
Experiment: E-VIPR Assay Detecting and Measuring NaV Inhibition Properties
Assay type: cell-based
Settings: HEK cells expressing a truncated form of human NaV 1.8; electrical stimulation, membrane potential FRET dyes; read-out: measured IC50 value in the E-VIPR Assay
Text: E-VIPR Assay Detecting and Measuring NaV Inhibition Properties
Sodium ion channels are voltage-dependent proteins that can be activated by inducing membrane voltage changes by applying electric fields. The electrical stimulation instrument and methods of use, referred to as E-VIPR, are described in International Publication No. WO 2002/008748 A3 and C.-J. Huang et al. Characterization of voltage-gated sodium channel blockers by electrical stimulation and fluorescence detection of membrane potential, 24 Nature Biotech. 439-46 (2006), both of which are incorporated by reference in their entirety. The instrument comprises a microtiter plate handler, an optical system for exciting the coumarin dye while simultaneously recording the coumarin and oxonol emissions, a waveform generator, a current- or voltage-controlled amplifier, and parallel electrode pairs that are inserted into assay plate wells. Under integrated computer control, this instrument passes user-programmed electrical stimulus protocols to cells within the wells of the microtiter plate.
16-20 hours prior to running the assay on E-VIPR, HEK cells expressing a truncated form of human NaV 1.8 with full channel activity were seeded into microtiter 384-well plates, pre-coated with matrigel, at a density of 25,000 cells per well. 2.5-5% KIR2.1 BacMam virus was added to the final cell suspension before seeding into cell plates. HEK cells were grown in Dulbecco's Modified Eagle's Medium (DMEM) supplemented with 10% FBS (Fetal Bovine Serum, qualified; Sigma #F4135), 1% NEAA (Non-Essential Amino Acids, Gibco #11140), 1% HEPES (Gibco #15630), 1% Pen-Strep (Penicillin-Streptomycin; Gibco #15140) and 5 μg/ml Blasticidin (Gibco #R210-01). Cells were expanded in 5-layer CellSTACK culture chambers or cell culture flasks with vented caps, with 90-95% humidity and 5% CO2.
Compound Loading Buffer (2× concentration): Na/TMA Cl Bath1 Buffer containing HS (omitted in experiments run in the absence of human serum (HS)) 50%, VABSC-1 1 mM, BSA 0.2 mg/ml (in Bath-1), KCl 9 mM, DMSO 0.625%.
Assay Protocol (7 Key Steps):
1) To reach the final concentration in each well, 375 nL of each compound was pre-spotted (in neat DMSO) into polypropylene compound plates at 240× desired final concentration from an intermediate stock concentration of 0.075 mM, in an 11-point dose response, 3-fold dilution, resulting in a top dose of 300 nM final concentration in the cell plate. Vehicle control (neat DMSO), and positive control (an established NaV1.8 inhibitor, 25 μM final in assay in DMSO) were added manually to the outermost columns of each plate respectively. The compound plate was backfilled with 45 μL per well of Compound Loading Buffer resulting in a 240-fold dilution of compound following a 1:1 transfer of compound into the cell plate (see Step 6). Final DMSO concentration for all wells in the assay was 0.625% (0.75% DMSO was supplemented to the Compound Loading Buffer for a final DMSO concentration of 0.625%). This assay dilution protocol was adjusted to enable a higher dose range to be tested in the presence of HS or if the final assay volume was altered.
2) Hexyl Dye Solution was prepared.
3) Cell plates were prepared. On the day of the assay, the media was aspirated, and the cells were washed three times with 80 μL of Bath-1 buffer, maintaining 25 μL residual volume in each well.
4) 25 μL per well of Hexyl Dye Solution was dispensed into the cell plates. The cells were incubated for 20 minutes at room temperature or ambient conditions in darkness.
5) 45 μL per well of Compound Loading Buffer was dispensed into compound plates.
6) The cell plates were washed three times with 80 μL per well of Bath-1 Buffer, leaving 25 µL of residual volume. Then 25 μL per well from compound plate was transferred to each cell plate. The mixture was incubated for 30 minutes at room temperature/ambient conditions. […]

human NaV 1.8, sequence (Q9Y5Y9 126-399 limits assumed): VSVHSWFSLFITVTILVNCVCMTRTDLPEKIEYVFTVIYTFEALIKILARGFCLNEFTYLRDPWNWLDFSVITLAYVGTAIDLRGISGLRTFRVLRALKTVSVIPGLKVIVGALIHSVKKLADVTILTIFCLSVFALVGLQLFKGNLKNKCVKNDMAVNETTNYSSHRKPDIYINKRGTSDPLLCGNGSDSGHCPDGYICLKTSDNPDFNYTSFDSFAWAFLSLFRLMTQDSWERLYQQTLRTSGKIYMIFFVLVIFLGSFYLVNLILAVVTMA
human NaV 1.8, sequence (Q9Y5Y9 660-890 limits assumed): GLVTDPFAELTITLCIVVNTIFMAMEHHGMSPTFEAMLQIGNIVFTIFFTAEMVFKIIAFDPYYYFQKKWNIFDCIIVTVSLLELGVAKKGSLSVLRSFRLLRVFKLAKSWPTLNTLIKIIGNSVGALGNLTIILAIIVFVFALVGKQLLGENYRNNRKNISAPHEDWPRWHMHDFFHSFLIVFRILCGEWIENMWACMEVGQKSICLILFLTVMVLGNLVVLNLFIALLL
human NaV 1.8, sequence (Q9Y5Y9 1148-1722 limits assumed): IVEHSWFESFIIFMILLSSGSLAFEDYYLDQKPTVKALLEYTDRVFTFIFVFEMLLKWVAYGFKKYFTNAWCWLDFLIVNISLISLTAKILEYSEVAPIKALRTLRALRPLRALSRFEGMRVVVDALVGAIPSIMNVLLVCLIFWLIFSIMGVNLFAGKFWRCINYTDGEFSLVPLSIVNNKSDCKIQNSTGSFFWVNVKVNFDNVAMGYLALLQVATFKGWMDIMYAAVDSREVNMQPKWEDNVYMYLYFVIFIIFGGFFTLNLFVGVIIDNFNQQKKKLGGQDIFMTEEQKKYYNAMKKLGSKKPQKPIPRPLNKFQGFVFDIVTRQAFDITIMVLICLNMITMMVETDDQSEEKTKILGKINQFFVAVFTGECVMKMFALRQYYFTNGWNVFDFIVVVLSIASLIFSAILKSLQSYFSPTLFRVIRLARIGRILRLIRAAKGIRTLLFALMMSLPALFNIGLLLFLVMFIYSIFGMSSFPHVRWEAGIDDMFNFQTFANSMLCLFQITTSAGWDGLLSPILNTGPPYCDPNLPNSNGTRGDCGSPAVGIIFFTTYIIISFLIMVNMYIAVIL

Row | IC50 [nM] | Compound
1 | 500 to 2000 | Cc1cc(C(C)(CO)C(F)(F)F)c(Cl)cc1-c1cc(=O)c2c(C(N)=O)nccc2[nH]1 (single isomer, unassigned) [Compound 365]
2 | 500 to 2000 | CC(C)(C)c1ccc(-c2cc(=O)c3ccccc3[nH]2)cc1 [Compound 5, 2-(4-tert-butylphenyl)-1H-quinolin-4-one]
3 | 2000 to 5000 | Cc1ccc(-c2cc(=O)c3ccccc3[nH]2)c(C)c1 [Compound 6, 2-(2,4-dimethylphenyl)-1H-quinolin-4-one]
4 | 500 to 2000 | Cc1ccc(C(C)(C)C)cc1-c1cc(=O)c2ccccc2[nH]1 [Compound 7, 2-(5-tert-butyl-2-methyl-phenyl)-1H-quinolin-4-one]
5 | 500 to 2000 | Cc1cc(C2CC2)ccc1-c1cc(=O)c2ccccc2[nH]1 [Compound 8, 2-(4-cyclopropyl-2-methyl-phenyl)-1H-quinolin-4-one]
6 | 500 to 2000 | Cc1c(-c2cc(=O)c3ccccc3[nH]2)ccc2c1CCC2 [Compound 12, 2-(4-methylindan-5-yl)-1H-quinolin-4-one]
7 | 2000 to 5000 | Cc1ccc(C(F)(F)F)cc1-c1cc(=O)c2ccccc2[nH]1 [Compound 17, 2-[2-methyl-5-(trifluoromethyl)phenyl]-1H-quinolin-4-one]
8 | 2000 to 5000 | COc1cc(C(F)(F)F)ccc1-c1cc(=O)c2ccccc2[nH]1 [Compound 19, 2-[2-methoxy-4-(trifluoromethyl)phenyl]-1H-quinolin-4-one]
9 | 2000 to 5000 | COc1cc(C)c(-c2cc(=O)c3ccccc3[nH]2)cc1C [Compound 23, 2-(4-methoxy-2,5-dimethyl-phenyl)-1H-quinolin-4-one]
10 | 2000 to 5000 | CCOc1cc(C(F)(F)F)ccc1-c1cc(=O)c2ccccc2[nH]1 [Compound 28, 2-[2-ethoxy-4-(trifluoromethyl)phenyl]-1H-quinolin-4-one]
11 | 2000 to 5000 | Cc1ccc(C)c(-c2cc(=O)c3ccccc3[nH]2)c1 [Compound 52, 2-(2,5-dimethylphenyl)-1H-quinolin-4-one]
12 | 500 to 2000 | Cc1cc(OC(F)(F)F)ccc1-c1cc(=O)c2ccccc2[nH]1 [Compound 54, 2-[2-methyl-4-(trifluoromethoxy)phenyl]-1H-quinolin-4-one]
13 | 2000 to 5000 | O=c1cc(-c2cc3c(cc2Cl)CCC3)[nH]c2ccccc12 [Compound 70, 2-(6-chloroindan-5-yl)-1H-quinolin-4-one]
14 | 2000 to 5000 | COc1cc(C)c(C)cc1-c1cc(=O)c2ccccc2[nH]1 [Compound 72, 2-(2-methoxy-4,5-dimethyl-phenyl)-1H-quinolin-4-one]
15 | 500 to 2000 | Cc1ccc(-c2cc(=O)c3ccccc3[nH]2)c(C)c1Cl [Compound 74, 2-(3-chloro-2,4-dimethyl-phenyl)-1H-quinolin-4-one]
16 | 2000 to 5000 | Cc1cc(Cl)ccc1-c1cc(=O)c2ccccc2[nH]1 [Compound 75, 2-(4-chloro-2-methyl-phenyl)-1H-quinolin-4-one]
17 | 500 to 2000 | Cc1cc(C(C)(C)C)ccc1-c1cc(=O)c2c[n+]([O-])ccc2[nH]1 [Compound 107, 2-(4-tert-butyl-2-methyl-phenyl)-6-oxido-1H-1,6-naphthyridin-6-ium-4-one]
18 | 2000 to 5000 | Cc1cc(C(C)(C)C)ccc1-c1cc(=O)c2cccnc2[nH]1 [Compound 111, 2-(4-tert-butyl-2-methyl-phenyl)-1H-1,8-naphthyridin-4-one]

Row | IC50 [nM] | Compound
19 | 500 to 2000 | Cc1cc(Cl)c(Cl)cc1-c1cc(=O)c2ccccc2[nH]1 [Compound 117, 2-(4,5-dichloro-2-methyl-phenyl)-1H-quinolin-4-one]
20 | 500 to 2000 | Cc1cc(Cl)c(Cl)cc1-c1cc(=O)c2cnccc2[nH]1 [Compound 118, 2-(4,5-dichloro-2-methyl-phenyl)-1H-1,6-naphthyridin-4-one]
21 | 500 to 2000 | Cc1cc(C)c(-c2cc(=O)c3c(C#N)cccc3[nH]2)cc1C [Compound 123, 4-oxo-2-(2,4,5-trimethylphenyl)-1H-quinoline-5-carbonitrile]
22 | 500 to 2000 | Cc1cc(C)c(-c2cc(=O)c3ccccc3[nH]2)cc1C [Compound 124, 2-(2,4,5-trimethylphenyl)-1H-quinolin-4-one]
23 | 500 to 2000 | Cc1ccc2[nH]c(-c3ccc(C(C)(C)C)cc3C)cc(=O)c2c1 [Compound 126, 2-(4-tert-butyl-2-methyl-phenyl)-6-methyl-1H-quinolin-4-one]
24 | 2000 to 5000 | Cc1cc(C2(C#N)CC2)ccc1-c1cc(=O)c2ccccc2[nH]1 [Compound 138, 1-[3-methyl-4-(4-oxo-1H-quinolin-2-yl)phenyl]cyclopropanecarbonitrile]
25 | 2000 to 5000 | CCOC(=O)c1ccc(-c2cc(=O)c3ccccc3[nH]2)c(C)c1 [Compound 166, ethyl 3-methyl-4-(4-oxo-1H-quinolin-2-yl)benzoate]
26 | 500 to 2000 | COC(C)(C)c1ccc(-c2cc(=O)c3ccccc3[nH]2)c(C)c1 [Compound 180, 2-[4-(1-methoxy-1-methyl-ethyl)-2-methyl-phenyl]-1H-quinolin-4-one]
27 | 500 to 2000 | Cc1cc(-c2cc(=O)c3c[n+]([O-])ccc3[nH]2)c(C)nc1C(C)(C)C [Compound 195, 2-(6-tert-butyl-2,5-dimethyl-3-pyridyl)-6-oxido-1H-1,6-naphthyridin-6-ium-4-one]
28 | 500 to 2000 | Cc1cc(-c2cc(=O)c3c(=O)[nH]ccc3[nH]2)c(C)nc1C(F)(F)F [Compound 200, 2-[2,5-dimethyl-6-(trifluoromethyl)-3-pyridyl]-1,6-dihydro-1,6-naphthyridine-4,5-dione]
29 | 500 to 2000 | COc1cccc2[nH]c(-c3ccc(C4(C(F)(F)F)CC4)cc3C)cc(=O)c12 [Compound 208, 5-methoxy-2-[2-methyl-4-[1-(trifluoromethyl)cyclopropyl]phenyl]-1H-quinolin-4-one]
30 | 500 to 2000 | Cc1cc(C(C)(C)C)ccc1-c1cc(=O)c2cccc(C)c2[nH]1 [Compound 209, 2-(4-tert-butyl-2-methyl-phenyl)-8-methyl-1H-quinolin-4-one]
31 | 500 to 2000 | Cc1ccc(C(C)(C)C)cc1-c1cc(=O)c2c(C(N)=O)nccc2[nH]1 [Compound 212, 2-(5-tert-butyl-2-methyl-phenyl)-4-oxo-1H-1,6-naphthyridine-5-carboxamide]
32 | 500 to 2000 | Cc1nc(C(C)(C)C)ccc1-c1cc(=O)c2c(C(N)=O)nccc2[nH]1 [Compound 221, 2-(6-tert-butyl-2-methyl-3-pyridyl)-4-oxo-1H-1,6-naphthyridine-5-carboxamide]
33 | 500 to 2000 | CCc1cc(-c2cc(=O)c3c(C(N)=O)nccc3[nH]2)c(C)cc1C [Compound 224, 2-(5-ethyl-2,4-dimethyl-phenyl)-4-oxo-1H-1,6-naphthyridine-5-carboxamide]
34 | 500 to 2000 | CC(C)(C)c1ccc(-c2cc(=O)c3c(C(N)=O)nccc3[nH]2)c(F)c1 [Compound 228, 2-(4-tert-butyl-2-fluoro-phenyl)-4-oxo-1H-1,6-naphthyridine-5-carboxamide]
35 | 500 to 2000 | Cc1cc(-c2cc(=O)c3c(C(N)=O)nccc3[nH]2)c(C)cc1Cl [Compound 231, 2-(4-chloro-2,5-dimethyl-phenyl)-4-oxo-1H-1,6-naphthyridine-5-carboxamide]
36 | 500 to 2000 | Cc1cc(C)c(C(C)C)cc1-c1cc(=O)c2c(C(N)=O)nccc2[nH]1 [Compound 234, 2-(5-isopropyl-2,4-dimethyl-phenyl)-4-oxo-1H-1,6-naphthyridine-5-carboxamide]

Row | Compound | IC50 [nM]
37 | CC1(C)CCC(C)(C)c2cc(-c3cc(=O)c4c(C(N)=O)nccc4[nH]3)ccc21 [Compound 239, 4-oxo-2-(1,1,4,4-tetramethyltetralin-6-yl)-1H-1,6-naphthyridine-5-carboxamide] | 500 to 2000
